Common to all, as to test: growth of human tumour cells (NCI), 48 h
For experiment [1], the system named is U-251.
In experiment [2] the test system is CAKI-1.
Experiment [3] deals with SK-MEL-28.
Experiment [4] relates to HCT-15.
The test system of experiment [5] is SNB-19.
In experiment [6] the test system is KM12.
For experiment [7], the system named is DU-145.
The test system of experiment [8] is RXF 393.
In experiment [9] the test system is SW-620.
In experiment [10] the test system is SNB-75.
Experiment [11] has as its system OVCAR-8.
The test system of experiment [12] is SF-295.
Experiment [13] relates to MDA-N.
For experiment [14], the system named is MDA-MB-231.
The subject of experiment [15] is OVCAR-4.
For experiment [16], the system named is COLO 205.
Experiment [17] deals with SR.
Experiment [18] deals with K562.
Experiment [19] concerns RPMI-8226.
Experiment [20] relates to HCC 2998.

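Five concentrations, 48 hours, 96-well plates. GI50: concentration for 50% inhibition of growth.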 The source made the active and inactive calls. Rule as the data show it: active = GI50 up to about 1.1 µM and inactive = higher. Where only a bound is given, the exact number is not on record here.

Take `CCSc1cc(C(=O)OC)c2n(c1=O)CCCC2`: the GI50 in [1] is > 100 µM (inactive); in [2], > 100 µM (inactive); in experiment [3], > 100 µM (inactive); in experiment [4] it was above 100 µM; in [5], > 100 µM (inactive); in [6], > 100 µM (inactive). The GI50 in [7], in [8], in [9], in experiment [10], in experiment [11] and in [12] was > 100 µM (inactive) in each case. The GI50 in [13], in experiment [14], in experiment [15] and in [16] was > 100 µM (inactive) throughout.
On to `C=C1CCC([N+](=O)[O-])[C@](C)(N=O)CC[C@@H]2C1CC2(C)C` (stereo partly drawn), for which the GI50 is 21.4 µM (inactive) in experiment [1]; 34 µM (inactive) in experiment [2]; > 10 µM (inactive) in [3]; 22.8 µM in experiment [4]; 8.57 µM (inactive) in experiment [17]; 27.3 µM (inactive) in experiment [5]. The GI50 in [6] was 24.5 µM (inactive); in experiment [7], > 100 µM (inactive); in [18], 17.3 µM (inactive); in experiment [19] it was 26 µM (inactive); in experiment [9], 16.9 µM (inactive); in experiment [10] it was 18.9 µM (inactive). The GI50 in experiment [11] was 22.3 µM (inactive); in [12], 17.9 µM (inactive); in experiment [13], 11.6 µM (inactive); in experiment [15], 24.7 µM (inactive); in [16], 28.1 µM (inactive).
Consider `CCOP(=O)(OCC)C(Cc1ccc(Cl)cc1)NS(=O)(=O)c1ccc(C)cc1` (stereo not drawn), for which the GI50 is > 100 µM (inactive) in experiment [1]; > 100 µM (inactive) in [2]; > 100 µM (inactive) in experiment [3]; above 100 µM in experiment [4]; > 100 µM (inactive) in [5]; > 100 µM (inactive) in experiment [6]. The GI50 in experiment [7] was > 100 µM (inactive); in [8] it was > 100 µM (inactive); in experiment [18] it was > 100 µM (inactive); in experiment [19], 98.9 µM (inactive); in experiment [9] it was > 100 µM (inactive); in experiment [11] it was > 100 µM (inactive). For the same molecule, the GI50 in experiment [12], in experiment [13], in [14], in experiment [15], in experiment [20] and in experiment [16] was > 100 µM (inactive) in each case.
Take `O=C1C(=O)C(CCCO)(CCCO)CCCCCCCCC1(CCCO)CCCO`: the GI50 in experiment [1] is 66.5 µM (inactive); in [2] it was > 100 µM (inactive); in [3] it was 41.9 µM (inactive); in [4] it was above 100 µM; in experiment [17], 18.6 µM (inactive); in [5], 61.5 µM (inactive). Besides, the GI50 in experiment [6] is 78.5 µM (inactive); in [7] it was 75.7 µM (inactive); in [8], 17.3 µM (inactive); in [18], 23.7 µM (inactive); in experiment [19], < 0.01 µM (active); in [9] it was > 100 µM (inactive). The GI50 is 50.1 µM (inactive) in experiment [10]; > 100 µM (inactive) in [11]; > 100 µM (inactive) in experiment [12]; 86.9 µM (inactive) in [13]; > 100 µM (inactive) in experiment [15]; > 100 µM (inactive) in experiment [20]. The GI50 in experiment [16] was > 100 µM (inactive).
In the case of `CCCCCc1c(CCCC)c(O)nc2nc(NC(=O)CCCC)ccc12`, the GI50 in [1] is > 100 µM (inactive); in [2], > 100 µM (inactive); in experiment [3] it was > 100 µM (inactive); in experiment [4], above 100 µM; in experiment [17] it was 51.9 µM (inactive); in experiment [5] it was > 100 µM (inactive). Besides, the GI50 in experiment [6], in [8], in experiment [18], in experiment [19], in [9] and in experiment [10] was > 100 µM (inactive) each time. Moreover, the GI50 in [11], in experiment [12], in [13], in experiment [14], in [15] and in experiment [20] was > 100 µM (inactive) in each case. The GI50 in [16] was > 100 µM (inactive).
`CCC(=O)NCCc1c2c3c(ccnc3c3ncsc13)-c1ccccc1N2` [KUANONIAMINE C]: the GI50 in experiment [1] is 1.41 µM (inactive); in experiment [2], 5.74 µM (inactive); in [3], 2.56 µM (inactive); in experiment [4], 2.51 µM; in experiment [5], 4.36 µM (inactive); in [6], 2.33 µM (inactive). In addition, the GI50 in [7] was 0.603 µM (active); in [8], 4.16 µM (inactive); in experiment [18] it was 1.53 µM (inactive); in [19], 0.401 µM (active); in experiment [9], 1.18 µM (inactive); in experiment [10] it was 6.89 µM (inactive). Further, the GI50 was 3.28 µM (inactive) in [11]; 1.12 µM (active) in experiment [12]; 0.324 µM (active) in experiment [13]; 4.02 µM (inactive) in experiment [14]; 30.4 µM (inactive) in experiment [15]; 0.692 µM (active) in [20]. Further, the GI50 in [16] was 1.45 µM (inactive).
In the case of `CCOC(=O)C(=[N+]=[N-])C(=O)CN1C(=O)C2CC(C)=C(C)CC2C1O` (stereo not drawn), the GI50 in experiment [1], in experiment [3], in experiment [17], in experiment [5], in [6] and in experiment [7] was > 100 µM (inactive) in each case. Besides, the GI50 in [8], in experiment [18], in experiment [19], in experiment [9], in experiment [10] and in experiment [11] was > 100 µM (inactive) in each case. Besides, the GI50 in experiment [12], in experiment [13], in experiment [20] and in experiment [16] was > 100 µM (inactive) each time.
For `N#CC1(C#N)NC(c2ccccc2)C(C#N)(C#N)NC1c1ccccc1` (stereo not drawn), the GI50 in [1] was > 100 µM (inactive); in experiment [2], 6.59 µM (inactive); in experiment [3], > 100 µM (inactive); in [4], above 100 µM; in [5], > 100 µM (inactive); in experiment [6], > 100 µM (inactive). The GI50 in experiment [7], in experiment [8], in experiment [18], in [19], in experiment [9] and in [10] was > 100 µM (inactive) each time. Moreover, the GI50 was > 100 µM (inactive) in experiment [11]; > 100 µM (inactive) in [12]; > 100 µM (inactive) in [13]; 25.9 µM (inactive) in [14]; > 100 µM (inactive) in [15]; > 100 µM (inactive) in experiment [20]. For the same molecule, the GI50 in experiment [16] was > 100 µM (inactive).
With `FC(F)(F)C1(C(F)(F)F)OC(Cl)(Cl)C(Cl)(Cl)O1`, the GI50 in experiment [1] is > 10 µM (inactive); in [2] it was > 10 µM (inactive); in experiment [3], > 10 µM (inactive); in [4], above 10 µM; in experiment [5] it was > 10 µM (inactive); in experiment [6] it was > 10 µM (inactive). Moreover, the GI50 in experiment [7], in experiment [8], in experiment [9], in experiment [11], in [12] and in [13] was > 10 µM (inactive) throughout. Moreover, the GI50 in experiment [14], in experiment [15], in experiment [20] and in [16] was > 10 µM (inactive) throughout.
For the molecule `Cc1[nH]c2c(C)ccc(C)c2c1CC(=O)O`, the GI50 is 35.9 µM (inactive) in [1]; 43 µM (inactive) in [2]; 61.8 µM (inactive) in experiment [3]; 53.5 µM in experiment [4]; 92 µM (inactive) in experiment [5]; 32.2 µM (inactive) in experiment [6]. Further, the GI50 was > 100 µM (inactive) in experiment [7]; > 100 µM (inactive) in experiment [8]; 34.4 µM (inactive) in [18]; 25.7 µM (inactive) in experiment [19]; 42.9 µM (inactive) in experiment [9]; 32.5 µM (inactive) in experiment [11]. For the same molecule, the GI50 in experiment [12] is 50.1 µM (inactive); in [13], 31.5 µM (inactive); in experiment [14] it was 13 µM (inactive); in [15], 38.1 µM (inactive); in experiment [20], 29.6 µM (inactive); in [16], 40 µM (inactive).
For the molecule `Cn1c(Nc2ccccc2)c(/C=N\c2ccccc2)c(=O)n(C)c1=O`, the GI50 in experiment [1] is 30 µM (inactive); in experiment [3], > 100 µM (inactive); in experiment [6] it was 97.7 µM (inactive); in [7], > 100 µM (inactive); in [8] it was 75.9 µM (inactive); in [18], > 100 µM (inactive). The GI50 was > 100 µM (inactive) in experiment [19]; > 100 µM (inactive) in experiment [9]; 39.7 µM (inactive) in [11]; 89.5 µM (inactive) in experiment [12]; > 100 µM (inactive) in experiment [13]; 61.4 µM (inactive) in [14]. Moreover, the GI50 in experiment [15] was > 100 µM (inactive).
With `O=C1C=C(C2=CC(=O)C(=O)c3ccccc32)c2ccccc2C1=O`, the GI50 in experiment [1] was 5.47 µM (inactive); in [2] it was 22 µM (inactive); in experiment [3], 4.26 µM (inactive); in experiment [4], 11.8 µM; in [5] it was 29.7 µM (inactive); in [6] it was 18.6 µM (inactive). Besides, the GI50 in [7] is 14.9 µM (inactive); in experiment [8], 10.9 µM (inactive); in experiment [18], 3.3 µM (inactive); in [19], 6.17 µM (inactive); in experiment [9], 5.01 µM (inactive); in experiment [10], 22.4 µM (inactive). The GI50 in experiment [11] was 20.2 µM (inactive); in [12], 21.2 µM (inactive); in experiment [13] it was 2.02 µM (inactive); in [14], 15.6 µM (inactive); in experiment [15], 47.6 µM (inactive); in experiment [16], 18 µM (inactive).

(Values after ChEMBL document CHEMBL1201862, “PubChem BioAssay data set” (2004).)
